Experimental data from ChEMBL document CHEMBL1649457, “Antibiotic susceptibility of Waddlia chondrophila in Acanthamoeba castellanii amoebae” (2009).
In brackets after ≈: the same amount, converted by molar mass.

Tests used:
[1] = test system: Parachlamydia acanthamoebae; assay: Antimicrobial activity against Parachlamydia acanthamoebae infected in Acanthamoeba castellanii amoeba cells; assay type: functional
[2] = Antimicrobial activity against Waddlia chondrophila ATCC VR-1470 infected in Vero cells; assay type: functional, Waddlia chondrophila WSU 86-1044
[3] = test system: Chlamydia pneumoniae; assay: Antimicrobial activity against Chlamydophila pneumoniae infected in Vero cells; assay type: functional
[4] = Antimicrobial activity against Waddlia chondrophila ATCC VR-1470 infected in Acanthamoeba castellanii amoeba cells; assay type: functional, Waddlia chondrophila WSU 86-1044
[5] = test system: Chlamydia trachomatis; assay: Antimicrobial activity against Chlamydia trachomatis infected in Vero cells; assay type: functional
[6] = test system: Chlamydophila psittaci; assay: Antimicrobial activity against Chlamydophila psittaci infected in Vero cells; assay type: functional; settings: Chlamydia psittaci
[7] = Antimicrobial activity against Waddlia chondrophila 2032/99 infected in Acanthamoeba castellanii amoeba cells; assay type: functional

Row | SMILES | MIC [1] [µg/mL] | MIC [2] [µg/mL] | MIC [3] [µg/mL] | MIC [4] [µg/mL] | MIC [5] [µg/mL] | MIC [6] [µg/mL] | MIC [7] [µg/mL]
1 | CC1(C)S[C@@H]2[C@H](NC(=O)[C@H](N)c3ccc(O)cc3)C(=O)N2[C@H]1C(=O)O [AMOXICILLIN] | > 32 | – | – | – | – | – | –
2 | CC1(C)S[C@@H]2[C@H](NC(=O)[C@H](N)c3ccccc3)C(=O)N2[C@H]1C(=O)O [AMPICILLIN] | – | > 32 | > 100 | > 32 | – | – | –
3 | CC[C@H]1OC(=O)[C@H](C)[C@@H](O[C@H]2C[C@@](C)(OC)[C@@H](O)[C@H](C)O2)[C@H](C)[C@@H](O[C@@H]2O[C@H](C)C[C@H](N(C)C)[C@H]2O)[C@](C)(O)C[C@@H](C)CN(C)[C@H](C)[C@@H](O)[C@]1(C)O [AZITHROMYCIN] | – | 0.25 (≈ 0.334 µM) | 0.06 (≈ 0.0801 µM) | 0.06 (≈ 0.0801 µM) | 0.125 (≈ 0.167 µM) | 0.125 (≈ 0.167 µM) | 0.06 (≈ 0.0801 µM)
4 | CO/N=C(\C(=O)N[C@@H]1C(=O)N2C(C(=O)O)=C(CSc3nc(=O)c(O)nn3C)CS[C@H]12)c1csc(N)n1 [CEFTRIAXONE] | > 32 | > 32 | – | > 32 | > 32 | – | –
5 | O=C(O)c1cn(C2CC2)c2cc(N3CCNCC3)c(F)cc2c1=O [CIPROFLOXACIN] | > 16 | > 16 | 1 (≈ 3.02 µM) | > 16 | 0.5 (≈ 1.51 µM) | 1 (≈ 3.02 µM) | –
6 | C[C@H]1c2cccc(O)c2C(=O)C2=C(O)[C@]3(O)C(=O)C(C(N)=O)=C(O)[C@@H](N(C)C)[C@@H]3[C@@H](O)[C@@H]21.O [DOXYCYCLINE] | 0.5 | 0.25 | 0.03 | 4 | 0.03 | 0.03 | 1
7 | CC1COc2c(N3CCN(C)CC3)c(F)cc3c(=O)c(C(=O)O)cn1c23 (stereo not drawn) [OFLOXACIN] | > 16 | > 16 | 0.5 (≈ 1.38 µM) | > 16 | 0.5 (≈ 1.38 µM) | 0.5 (≈ 1.38 µM) | –
